Test results taken from US20200069775A1, “BRAIN OSTEOCALCIN RECEPTOR AND COGNITIVE DISORDERS” (The Trustees of Columbia University in the City of New York, priority 2017, published 2020).

Assays:
[1] = system: Bdnf accumulation in the hippocampus; assay: BDNF accumulation (Western blot) in hippocampus after peripheral osteocalcin; format: in vivo, mouse; conditions: WT mice injected peripherally, 16 hours (FIG. 13h)
Experimental: FIG. 13. Exogenous osteocalcin improves anxiety and cognition in aged WT mice. (Panel a) EPMT performed in aged mice receiving plasma from aged, young WT, or young Ocn−/− mice, and aged WT mice receiving plasma from young Ocn−/− supplemented with 90 ng/g osteocalcin. Number of entries and time spent (s) in the open arms were scored. (Panel b) NOR performed in aged WT mice receiving plasma from WT mice either aged or young, or from young Ocn−/− mice or from young Ocn−/− supplemented with 90 ng/g osteocalcin. Preference index (time spent with novel object/total exploration time) was measured for each group. (Panel c) BDNF accumulation (representative Western blot, left) and quantification of band intensities (right) in hippocampi of aged WT mice receiving plasma from WT, either aged or young, or from young Ocn−/− mice. α-Tubulin is used as a loading control. (Panel d) DLT performed in 12 and 16 month-old WT mice treated with vehicle or osteocalcin. Number of entries in the lit compartment was measured. (Panel e) EPMT performed in 12 and 16 month-old WT mice treated with vehicle or osteocalcin. Time spent in the lit compartment and open arms was measured. (Panel f) MWMT performed over 10 days in 12 and 16 month-old WT mice treated with vehicle or osteocalcin. […] Preference index (time spent with novel object/total exploration time) was measured for each group. […]

[2] = system: mouse primary hindbrain neurons (MPHN); assay: Gene expression in mouse primary hindbrain neurons (MPHN); format: cell-based; conditions: osteocalcin 3 ng/ml, 2 or 4 hours; WT and Gprc6a−/− primary brainstem neuronal culture
Experimental: For gene expression studies, RNA was isolated from primary neurons or tissue using TRIZOL® (Invitrogen). cDNA synthesis was performed following a standard protocol from Invitrogen and qPCR analyses were done using specific quantitative PCR primers from SABiosciences (http://www.sabiosciences.com/RT2PCR.php).
For primary culture of hindbrain neurons, E14.5 embryos were obtained from matings of 129-Sv WT mice. Hindbrains were dissected out and collected in ice-cold filter sterilized HBSS buffered with 10 mM HEPES until dissection was complete, at which point they were finely chopped into 2 mm cubes, dissociated by trituration with a fire-polished Pasteur pipette and spun down at 4° C. Cells were then plated onto poly-D-lysine coated coverslips or dishes in Neurobasal medium supplemented with 2% B27, 0.25 mM Glutamax, 0.25 mM L-glutamine, penicillin G (50 U/ml), and streptomycin sulphate ([…]). Cultures were fed every 3-6 days with one half replacement medium without L-glutamine.
To determine if osteocalcin acts directly on neurons to modulate neurotransmitter synthesis, several types of assays were performed. First, brainstem and midbrain explants from WT and Gprc6a^−/− mice were generated. […] Third, to further confirm that osteocalcin signals in neurons of the hindbrain, calcium flux in MPHN treated with undercarboxylated or carboxylated osteocalcin (FIG. 3F) was measured.

16 month old WT mice = assay: ICV delivery in aged WT mice, modified Novel Object Recognition test; format: in vivo, mouse; conditions: ICV 10 ng/hr, one month
Experimental: ICV pumps delivering (10 ng/hr) recombinant uncarboxylated full-length mouse osteocalcin were implanted in 16 month old WT mice. After an infusion period of one month, the mice were subjected to a modified version of the Novel Object Recognition test, to assay memory and hippocampal function. Briefly, mice were given five 5 minute exposures, with 3 minute resting intervals between exposures, to a novel arena containing two objects. During exposures 1-4, mice were habituated to these two objects, which elicited equal amounts of exploration. In the fifth exposure, one of the objects was replaced with a novel object.

osteocalcin: Recombinant osteocalcin bacterially produced, cleaved from the GST subunit; completely undercarboxylated at all three sites; full-length mouse osteocalcin (YLGASVPSPDPLEPTREQCELNPACDELSDQYGLKTAYKRIYGITI)
Bdnf accumulation in the hippocampi [1]: increased | Tph2 expression [2]: increased more than three-fold | decrease of GAD1 expression [2]: 65% | discrimination between novel and constant objects (16 month old WT mice): able to discriminate between the novel and constant objects | time exploring the novel object (Novel Object Recognition) (16 month old WT mice): spent less time exploring the novel object than mice treated with vehicle alone
